Test results published in ChEMBL document CHEMBL2375263, “Identification and design of a novel series of MGAT2 inhibitors” (Bioorg Med Chem Lett, 2013).
≈ marks a conversion by molar mass, not a printed value.

Key:
[1] = target: T1, Diacylglycerol O-acyltransferase 1 (Homo sapiens, UniProt O75907); assay: Inhibition of human recombinant DGAT1 expressed in Sf9 cells using dioleoyl-sn-glycerol and [14C]oleoyl coenzyme A as substrate after 30 mins by liquid scintillation counting
T1 sequence (O75907 whole entry): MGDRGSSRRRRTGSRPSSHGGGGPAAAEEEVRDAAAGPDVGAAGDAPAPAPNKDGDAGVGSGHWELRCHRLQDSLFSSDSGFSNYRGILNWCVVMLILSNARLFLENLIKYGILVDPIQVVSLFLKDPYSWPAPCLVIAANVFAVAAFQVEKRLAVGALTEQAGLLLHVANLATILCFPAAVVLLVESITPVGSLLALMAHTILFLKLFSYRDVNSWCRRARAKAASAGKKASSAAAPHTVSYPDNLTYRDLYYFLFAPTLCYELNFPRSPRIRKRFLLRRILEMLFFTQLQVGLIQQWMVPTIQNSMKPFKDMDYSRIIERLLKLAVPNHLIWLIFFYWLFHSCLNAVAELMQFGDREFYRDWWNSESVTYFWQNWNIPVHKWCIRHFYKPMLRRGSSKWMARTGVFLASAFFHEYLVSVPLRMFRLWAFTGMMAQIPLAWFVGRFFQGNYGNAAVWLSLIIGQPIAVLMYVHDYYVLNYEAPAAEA

[2] = target: T2, Acyl-CoA wax alcohol acyltransferase 1 (Homo sapiens, UniProt Q58HT5); assay: Inhibition of human recombinant AWAT1 expressed in insect cell membrane using palmitoleyl alcohol and [14C]stearoyl coenzyme A as substrate after 10 to 15 mins by liquid scintillation counting
T2 sequence (Q58HT5 whole entry): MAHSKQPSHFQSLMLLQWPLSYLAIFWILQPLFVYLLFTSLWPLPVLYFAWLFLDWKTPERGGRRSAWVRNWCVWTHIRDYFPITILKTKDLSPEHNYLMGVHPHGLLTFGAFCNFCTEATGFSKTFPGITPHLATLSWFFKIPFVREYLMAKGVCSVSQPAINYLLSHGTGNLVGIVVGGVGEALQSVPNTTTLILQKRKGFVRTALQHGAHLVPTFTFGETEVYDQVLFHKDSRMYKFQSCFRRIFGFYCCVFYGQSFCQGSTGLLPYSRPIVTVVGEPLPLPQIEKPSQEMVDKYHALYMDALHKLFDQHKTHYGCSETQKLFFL

[3] = Time dependent inhibition of CYP450 (unknown origin); assay type: ADME; details: human
[4] = target: T3, Diacylglycerol O-acyltransferase 2 (Homo sapiens, UniProt Q96PD7); assay: Inhibition of human recombinant DGAT2 using dioleoyl-sn-glycerol and [14C]oleoyl coenzyme A as substrate after 30 mins by liquid scintillation counting
T3 sequence (Q96PD7 whole entry): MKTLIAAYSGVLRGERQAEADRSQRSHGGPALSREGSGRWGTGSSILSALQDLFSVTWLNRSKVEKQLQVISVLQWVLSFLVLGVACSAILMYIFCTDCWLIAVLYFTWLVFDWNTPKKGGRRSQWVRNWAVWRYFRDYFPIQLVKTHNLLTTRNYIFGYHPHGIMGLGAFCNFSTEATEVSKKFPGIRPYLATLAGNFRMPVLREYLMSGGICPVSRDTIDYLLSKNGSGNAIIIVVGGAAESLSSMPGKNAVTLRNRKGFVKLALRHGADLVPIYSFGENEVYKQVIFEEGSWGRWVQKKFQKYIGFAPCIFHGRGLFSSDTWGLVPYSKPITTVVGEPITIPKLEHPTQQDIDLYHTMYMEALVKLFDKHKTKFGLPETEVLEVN

[5] = Apparent permeability from apical side to basolateral side of human Caco2 cells at 10 umol/l measured up to 120 mins by LCMS analysis; assay type: ADME, cell-based; details: Caco-2
[6] = Dissociation constant, pKa of the compound; assay type: physicochemical
[7] = target: T4, Acyl-CoA wax alcohol acyltransferase 2 (Homo sapiens, UniProt Q6E213); assay: Inhibition of human recombinant AWAT2 expressed in insect cell membrane using cetyl alcohol and [14C]oleoyl coenzyme A as substrate after 10 to 15 mins by liquid scintillation counting
T4 sequence (Q6E213 whole entry): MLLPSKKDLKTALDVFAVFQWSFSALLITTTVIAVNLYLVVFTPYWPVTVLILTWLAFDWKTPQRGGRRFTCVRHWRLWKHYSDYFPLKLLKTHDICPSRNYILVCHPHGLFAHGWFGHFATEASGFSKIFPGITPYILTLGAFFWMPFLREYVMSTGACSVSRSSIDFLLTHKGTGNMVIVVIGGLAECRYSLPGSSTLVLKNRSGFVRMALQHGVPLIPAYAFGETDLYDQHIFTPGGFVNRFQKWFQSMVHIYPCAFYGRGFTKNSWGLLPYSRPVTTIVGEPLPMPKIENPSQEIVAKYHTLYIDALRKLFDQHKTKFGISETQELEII

Mus musculus [8] = assay: Antiobesity activity in C57Bl6J mouse assessed as inhibition of corn oil-induced triacylglycerol excursion at 150 mg/kg, po administered at 30 mins post corn-oil challenge measured after 2 hrs by oral lipid tolerance test relative to control; assay type: functional
[9] = Tmax in mouse at 100 mg/kg, po; assay type: ADME, organism-based; parameters: dose 100 mg/kg, route oral; details: in vivo
Mus musculus [10] = assay: Antiobesity activity in C57Bl6J mouse assessed as inhibition of corn oil-induced triacylglycerol excursion at 5 mg/kg, po administered at 30 mins post corn-oil challenge measured after 2 hrs by oral lipid tolerance test relative to control; assay type: functional
[11] = Intrinsic clearance in human liver microsomes as 1 umol/l measured up to 30 mins by LC-MS analysis; assay type: ADME, Microsome; details: read-out: CLH
[12] = Inhibition of CYP450 (unknown origin); assay type: ADME; details: human
[13] = Lipophilicity, log D of the compound at pH 7.4; assay type: physicochemical; details: buffer
Liver microsomes = assay: Ratio of compound-glutathione adduct formation to clozapine-glutathione adduct formation in human liver microsomes at 10 umol/l after 30 mins by glutathione trapping method; assay type: ADME, Microsome; details: 0.5 h, 10 µM
[14] = Solubility of the compound; assay type: physicochemical

IC50 [1] | IC50 [2] | inhibition (INH) [3] | IC50 [4] | Papp A→B at 2 h, 10 µM [5] | pKa [6] | IC50 [7] | Tmax [9] | microsomal CLint at 1 µM [11] | inhibition (INH) [12] | logD [13] | Ratio (Liver microsomes) | solubility [14] | SMILES | inhibition in vivo at 150 mg/kg (Mus musculus [8]) | inhibition in vivo at 5 mg/kg (Mus musculus [10])
> 10 µM | > 100 µM | Not Active | > 10 µM | 3.3 ×10⁻⁶ cm/s | 7.3 | > 100 µM | 30 min | < 5 µL/min/mg | Not Active |  |  |  | CC[C@]1(C)NC(=O)c2cc(S(=O)(=O)Nc3ccc(F)cc3F)ccc2NC1=O | 68% | 116%
> 10 µM | > 100 µM | Not Active | > 10 µM | 3.1 ×10⁻⁶ cm/s | 6.9 | > 100 µM |  | < 5 µL/min/mg | Not Active |  |  |  | CC[C@]1(C)NC(=O)c2cc(S(=O)(=O)Nc3ccc(C(F)(F)F)cc3)ccc2NC1=O |  | 
 |  |  |  |  |  |  |  |  |  | 1.6 |  |  | CCC1NC(=O)c2cc(S(=O)(=O)Nc3ccccc3)ccc2NC1=O (racemic) |  | 
 |  |  |  |  |  |  |  |  |  | 2.2 |  |  | CCCC1(C)NC(=O)c2cc(S(=O)(=O)Nc3ccc(F)cc3F)ccc2NC1=O (racemic) |  | 
> 10 µM | > 100 µM | Not Active | > 10 µM | 20 ×10⁻⁶ cm/s | 7.9 | > 100 µM |  | 7 µL/min/mg | Not Active |  |  |  | CCC1(C)NC(=O)c2cc(S(=O)(=O)Nc3ccc(Cl)cc3)ccc2N(C)C1=O (racemic) |  | 
> 10 µM | > 100 µM | Not Active | > 10 µM | 8.1 ×10⁻⁶ cm/s | 7.1 | > 100 µM |  | 9 µL/min/mg | Not Active |  |  |  | CCC1(C)C(=O)Nc2ccc(S(=O)(=O)Nc3ccc(F)cc3F)cc2C(=O)N1C (racemic) |  | 
 |  |  |  |  |  |  |  |  |  | 3.1 |  |  | CCC1(C)NC(=O)c2cc(S(=O)(=O)Nc3ccc(C(F)(F)F)cc3)ccc2NC1=O (racemic) |  | 
> 10 µM | > 100 µM | Not Active | > 10 µM | 1.5 ×10⁻⁶ cm/s | 5.6 | > 100 µM |  | 16 µL/min/mg | Not Active | 1.8 |  |  | CCC1(C)NC(=O)c2cc(S(=O)(=O)Nc3ccc(OC)cc3)ccc2NC1=O (racemic) |  | 

The next lines start with the molecule.

SMILES | IC50 [1] | IC50 [2] | inhibition (INH) [3] | IC50 [4] | Papp A→B at 2 h, 10 µM [5] | pKa [6] | IC50 [7] | Tmax [9] | microsomal CLint at 1 µM [11] | inhibition (INH) [12] | logD [13] | Ratio (Liver microsomes) | solubility [14] | inhibition in vivo at 150 mg/kg (Mus musculus [8]) | inhibition in vivo at 5 mg/kg (Mus musculus [10])
CC1(C)NC(=O)c2cc(S(=O)(=O)Nc3ccccc3)ccc2NC1=O |  |  |  |  |  |  |  |  |  |  | 1.6 |  |  |  | 
O=C1NC2(CCCC2)C(=O)Nc2ccc(S(=O)(=O)Nc3ccc(Cl)cc3)cc21 |  |  |  |  |  |  |  |  |  |  | 3 |  |  |  | 
CCC1(CC)NC(=O)c2cc(S(=O)(=O)Nc3ccc(F)cc3F)ccc2NC1=O |  |  |  |  |  |  |  |  |  |  | 2.2 |  |  |  | 
CCC1(CC)CNc2ccc(S(=O)(=O)Nc3ccc(F)cc3F)cc2C(=O)N1 | > 10 µM | > 100 µM | Not Active | > 10 µM | 16 ×10⁻⁶ cm/s | 8 | > 100 µM |  | 40 µL/min/mg | Not Active |  | 1.8 |  |  | 
CC[C@]1(C)NC(=O)c2cc(S(=O)(=O)Nc3ccc(OC(F)F)cc3)ccc2NC1=O | > 10 µM | > 100 µM | Not Active | > 10 µM | 1.1 ×10⁻⁶ cm/s | 7.9 | > 100 µM |  | 2.8 µL/min/mg | Not Active |  |  |  |  | 
CCC1(C)NC(=O)c2cc(S(=O)(=O)Nc3ccc(OC(F)F)cc3)ccc2NC1=O (racemic) |  |  |  |  |  |  |  |  |  |  | 2.3 |  |  |  | 
CCC1(C)NC(=O)c2cc(S(=O)(=O)Nc3ccc(F)cc3F)ccc2NC1=O (racemic) |  |  |  |  |  |  |  |  |  |  | 1.8 |  |  |  | 
CCC1(C)NC(=O)c2cc(S(=O)(=O)N(C)c3ccccc3)ccc2NC1=O (racemic) | > 10 µM | > 100 µM | Not Active | > 10 µM | 36 ×10⁻⁶ cm/s |  | > 100 µM |  | 221 µL/min/mg | Not Active |  | 0 |  |  | 
CCC1(C)NC(=O)c2cc(S(=O)(=O)Nc3ccccc3)ccc2NC1=O (racemic) | > 10 µM | > 100 µM | Not Active | > 10 µM | 2.4 ×10⁻⁶ cm/s | 8.7 | > 100 µM |  | < 5 µL/min/mg | Not Active | 1.9 |  |  |  | 
CCC1(C)NC(=O)c2cc(S(=O)(=O)NCc3ccccc3)ccc2NC1=O (racemic) |  |  |  |  |  |  |  |  |  |  | 1.8 |  |  |  | 
CCC1(C)NC(=O)c2cc(S(=O)(=O)NC3CCCCC3)ccc2NC1=O (racemic) |  |  |  |  |  |  |  |  |  |  | 2 |  |  |  | 
CCC1(C)NC(=O)c2cc(S(=O)(=O)Nc3ccc(Cl)cc3)ccc2NC1=O (racemic) | > 10 µM | > 100 µM | Not Active | > 10 µM | 5.5 ×10⁻⁶ cm/s | 8.1 | > 100 µM |  | 3 µL/min/mg | Not Active | 2.9 | 0.4 | 2 µM (≈ 0.816 µg/mL) |  | 
CCC1(C)NC(=O)c2cc(S(=O)(=O)Nc3ccccc3Cl)ccc2NC1=O (racemic) | > 10 µM | > 100 µM | Not Active | > 10 µM | 6.4 ×10⁻⁶ cm/s | 7.2 | > 100 µM |  | < 5 µL/min/mg | Not Active | 1.9 | 0.1 |  |  | 
